This note sets out measurements from patent US20200368315A1, “ANTIMICROBIAL PEPTIDES AND ADMIXTURES THEREOF SHOWING ANTIMICROBIAL ACTIVITY AGAINST GRAM-NEGATIVE PATHOGENS” (priority 2017, published 2020).

Where two headings read alike, the source gives them in different places. No end group written: not given here. A value given as a limit tells only on which side of the number the result lay.

Assay [1] concerns A. baumannii LMG01041. Format: cell-based, Acinetobacter baumannii. To be noted: for MICb: MIC of GNP alone. The source says: (§1) The test of synergistic effect was processed by conducting standard chequerboard broth microdilution assays. Nisin (Drug X) was loaded two fold serially diluted from row 1 to 10 in X-axis while GNPs (Drug Y) were loaded in eight two fold serially diluted concentrations from line A to H in Y-axis (FIG. 1). The original concentrations of peptides were MICs of each. Row 11 are used as growth control with no peptide was included, while row 12 with MHB medium-only wells was included as a sterility control as referred before. 50 uL fresh bacterial suspension was added to well 1-11 and final volume of each well on the plate is 100 uL.
(§2) To determine whether the combination therapy is additive, synergistic or antagonistic, fractional inhibitory concentration (FIC) indices were calculated. FICI=FICa+FICb=MICac/MICa+MICbc/MICb. The MICa/MICb is the MIC of compound A/B alone. MICac is the MIC of compound A in combination with compound B and MICbc is the MIC of compound B when it was combination with compound A. […]. FICa is FIC of compound A while FICb is FIC of compound B. The FICI is interpreted as follows: synergistic, FICI≤0.5; additive, 0.5<FICI<1; indifferent, 1<FICI<2; antagonistic, FICI>2.

The test system of assay [2] is P. aeruginosa LMG 6395. Format: cell-based, Pseudomonas aeruginosa. To be noted: for MICb: MIC of GNP alone; for MICbc: MIC of GNP when used with the MICac concentration of nisin; for MICac: MIC of nisin in combination with the GNP at the MICbc concentration.
Source text: as §1, §2

For assay [3], the system named is K. pneumoniae LMG20218. The assay is classed as cell-based, Klebsiella pneumoniae. To be noted: for MICb: MIC of GNP alone.
Source text: as §1, §2

For assay [4], the system named is E. coli LMG15862. To be noted: for MICb: MIC of GNP alone; for MICbc: MIC of GNP in combination with vancomycin at the MICac concentration; for MICac: MIC of vancomycin in combination with the GNP at the MICbc concentration. The procedure: (§3) The test of synergistic effect was processed by conducting standard chequerboard broth microdilution assays. […] Row 11 are used as growth control with no peptide was included, while row 12 with MHB medium-only wells was included as a sterility control as referred before. 50 uL fresh bacterial suspension was added to well 1-11 and final volume of each well on the plate is 100 uL.
(§4) The test of synergistic effect was processed as method 1.4.
as §2

In assay [5] the test system is E. aerogenes LMG 02094. To be noted: MIC of GNP alone. Here is the method: as §3, §4, §2
Assay [6] has as its system P. aeruginosa LMG 6395. The following applies: for MICb: MIC of GNP alone; for MICbc: MIC of GNP in combination with vancomycin at the MICac concentration; for MICac: MIC of vancomycin in combination with the GNP at the MICbc concentration. The procedure: as §3, §4, §2
Assay [7] deals with K. pneumoniae LMG20218. The following applies: for MICb: MIC of GNP alone. Here is the method: as §3, §4, §2
Assay [8] deals with A. baumannii LMG01041. To be noted: for MICb: MIC of GNP alone. The procedure: as §3, §4, §2
In assay [9] the test system is E. aerogenes LMG 02094. Format: cell-based, Enterobacter aerogenes. To be noted: MIC of GNP alone.
Source text: as §1, §2

In assay [10] the test system is E. coli LMG15862. Format: cell-based, Escherichia coli. The following applies: for MICb: MIC of GNP alone; for MICbc: MIC of GNP when used with the MICac concentration of nisin; for MICac: MIC of nisin in combination with the GNP at the MICbc concentration.
Source text: as §1, §2

Where [11] appears, read: MIC of GNP when used with the MICac concentration of nisin.
Setting [12] is: MIC of nisin in combination with the GNP at the MICbc concentration.
Setting [13] is: MIC of GNP in combination with vancomycin at the MICac concentration.
[14] abbreviates: MIC of vancomycin in combination with the GNP at the MICbc concentration.

With RIVQRIKKWL-NH2 [GNP8-1], the MICb in [1] is 128 µM; in [2], 16 µM; in assay [3], 64 µM; in assay [4], 32 µM; in assay [5] it was over 256 µM; in [6], 16 µM. The MICb is 64 µM in [7], 128 µM in [8], over 256 µM in [9] and 32 µM in assay [10]. The MICbc worked out at 16 µM in [1] (setting [11]); 4 µM in assay [2]; 1 µM in [3] (setting [11]); 4 µM in [4]; 2 µM in assay [6]; 8 µM in assay [7] (setting [13]). Besides, the MICbc in assay [8] (setting [13]) was determined as 16 µM; in assay [10] it was 4 µM. The MICac was 0.375 µM in assay [1] (setting [12]); 4.5 µM in [2]; 3 µM in [3] (setting [12]); 8 µM in assay [4]; 16 µM in [6]; 16 µM in assay [7] (setting [14]). Further, the MICac in [8] (setting [14]) was determined as 1 µM; in [10], 1.5 µM.

For RIKRRIKKWLR-NH2 [GNP8-5], the MICb in assay [1] is over 256 µM; in assay [2], 32 µM; in assay [3], over 256 µM; in assay [4] it was 24 µM; in assay [5] it was over 256 µM; in assay [6], 32 µM. Moreover, the MICb was over 256 µM in assay [7], over 256 µM in assay [8], over 256 µM in assay [9] and 24 µM in assay [10]. The MICbc came out at 8 µM in [2], 3 µM in assay [4], 8 µM in [6] and 3 µM in assay [10]. Further, the MICac in assay [2] came to 9 µM; in assay [4], 4 µM; in [6], 16 µM; in [10], 3 µM.

Regarding RIRKRIKKWLR-NH2 [GNP8-4], the MICb in assay [1] was over 256 µM; in [2] it was 16 µM; in [3], over 256 µM; in assay [4], 16 µM; in [5] it was over 256 µM; in assay [6] it was 16 µM. The MICb was over 256 µM in assay [7], over 256 µM in [8], over 256 µM in assay [9] and 16 µM in assay [10]. Also, the MICbc in [2] worked out at 4 µM; in [4], 2 µM; in [6] it was 8 µM; in [10], 2 µM. Besides, the MICac in [2] came out at 2.25 µM; in [4] it was 4 µM; in [6] it was 4 µM; in assay [10], 3 µM.

Turning to RIVQRIKKWR-NH2 [GNP8-6], the MICb is over 256 µM in [1]; over 256 µM in [2]; over 256 µM in assay [3]; 256 µM in assay [4]; over 256 µM in [5]; over 256 µM in assay [6]. In addition, the MICb is over 256 µM in assay [7], over 256 µM in [8], over 256 µM in assay [9] and 256 µM in [10]. For the same substance, the values for the MICbc in [4] and in assay [10] were 16 µM and 64 µM, respectively. Besides, the figures for the MICac in assay [4] and in assay [10] were 8 µM and 6 µM, respectively.
